This passage reports normalised inhibition (eCFP-eYFP dual reporter) results from the OligoGym collection.

Oligonucleotides are given in HELM: sugar(base)linkage, 5' to 3'; d 2'-deoxyribose, r ribose, m 2'-O-methylribose, p phosphate. ss, as = sense and antisense strand
Note: test concentration or dose not given here.

The target of this data set is Mmp7 (rat). Put plainly: reporter assay of Huesken 2005. To be noted: siRNA.
Turning to “RNA1{r(A)p.r(U)p.r(G)p.r(A)p.r(G)p.r(U)p.r(A)p.r(C)p.r(U)p.r(G)p.r(G)p.r(A)p.r(C)p.r(G)p.r(G)p.r(A)p.r(U)p.r(G)p.r(G)p.d(T)p.d(T)}|RNA2{r(C)p.r(C)p.r(A)p.r(U)p.r(C)p.r(C)p.r(G)p.r(U)p.r(C)p.r(C)p.r(A)p.r(G)p.r(U)p.r(A)p.r(C)p.r(U)p.r(C)p.r(A)p.r(U)p.d(C)p.d(C)}$$$RNA1{StrandType:ss}|RNA2{StrandType:as}$”, the normalised inhibition (eCFP-eYFP dual reporter) was 41.9%.
In the case of “RNA1{r(A)p.r(U)p.r(G)p.r(G)p.r(U)p.r(G)p.r(A)p.r(G)p.r(G)p.r(A)p.r(C)p.r(U)p.r(C)p.r(A)p.r(G)p.r(G)p.r(C)p.r(G)p.r(U)p.d(T)p.d(T)}|RNA2{r(A)p.r(C)p.r(G)p.r(C)p.r(C)p.r(U)p.r(G)p.r(A)p.r(G)p.r(U)p.r(C)p.r(C)p.r(U)p.r(C)p.r(A)p.r(C)p.r(C)p.r(A)p.r(U)p.d(C)p.d(C)}$$$RNA1{StrandType:ss}|RNA2{StrandType:as}$”, the normalised inhibition (eCFP-eYFP dual reporter) was 65.7%.
“RNA1{r(A)p.r(U)p.r(G)p.r(U)p.r(U)p.r(G)p.r(C)p.r(A)p.r(G)p.r(A)p.r(A)p.r(U)p.r(U)p.r(C)p.r(U)p.r(C)p.r(A)p.r(C)p.r(U)p.d(T)p.d(T)}|RNA2{r(A)p.r(G)p.r(U)p.r(G)p.r(A)p.r(G)p.r(A)p.r(A)p.r(U)p.r(U)p.r(C)p.r(U)p.r(G)p.r(C)p.r(A)p.r(A)p.r(C)p.r(A)p.r(U)p.d(C)p.d(T)}$$$RNA1{StrandType:ss}|RNA2{StrandType:as}$”: the normalised inhibition (eCFP-eYFP dual reporter) worked out at 80.2%.
The result for “RNA1{r(A)p.r(U)p.r(U)p.r(U)p.r(G)p.r(A)p.r(U)p.r(G)p.r(G)p.r(G)p.r(C)p.r(C)p.r(A)p.r(G)p.r(G)p.r(A)p.r(A)p.r(A)p.r(C)p.d(T)p.d(T)}|RNA2{r(G)p.r(U)p.r(U)p.r(U)p.r(C)p.r(C)p.r(U)p.r(G)p.r(G)p.r(C)p.r(C)p.r(C)p.r(A)p.r(U)p.r(C)p.r(A)p.r(A)p.r(A)p.r(U)p.d(G)p.d(G)}$$$RNA1{StrandType:ss}|RNA2{StrandType:as}$” reads 10.5%; that for “RNA1{r(C)p.r(A)p.r(A)p.r(A)p.r(C)p.r(A)p.r(G)p.r(U)p.r(C)p.r(C)p.r(U)p.r(A)p.r(A)p.r(G)p.r(U)p.r(G)p.r(G)p.r(C)p.r(A)p.d(T)p.d(T)}|RNA2{r(U)p.r(G)p.r(C)p.r(C)p.r(A)p.r(C)p.r(U)p.r(U)p.r(A)p.r(G)p.r(G)p.r(A)p.r(C)p.r(U)p.r(G)p.r(U)p.r(U)p.r(U)p.r(G)p.d(G)p.d(C)}$$$RNA1{StrandType:ss}|RNA2{StrandType:as}$”, 81.2%.
Consider “RNA1{r(C)p.r(A)p.r(A)p.r(A)p.r(G)p.r(A)p.r(A)p.r(G)p.r(G)p.r(C)p.r(C)p.r(A)p.r(C)p.r(C)p.r(A)p.r(G)p.r(U)p.r(G)p.r(C)p.d(T)p.d(T)}|RNA2{r(G)p.r(C)p.r(A)p.r(C)p.r(U)p.r(G)p.r(G)p.r(U)p.r(G)p.r(G)p.r(C)p.r(C)p.r(U)p.r(U)p.r(C)p.r(U)p.r(U)p.r(U)p.r(G)p.d(T)p.d(T)}$$$RNA1{StrandType:ss}|RNA2{StrandType:as}$”, for which the normalised inhibition (eCFP-eYFP dual reporter) is 38.2%.
On to “RNA1{r(C)p.r(A)p.r(C)p.r(U)p.r(C)p.r(U)p.r(A)p.r(G)p.r(G)p.r(C)p.r(C)p.r(A)p.r(U)p.r(G)p.r(C)p.r(C)p.r(U)p.r(U)p.r(U)p.d(T)p.d(T)}|RNA2{r(A)p.r(A)p.r(A)p.r(G)p.r(G)p.r(C)p.r(A)p.r(U)p.r(G)p.r(G)p.r(C)p.r(C)p.r(U)p.r(A)p.r(G)p.r(A)p.r(G)p.r(U)p.r(G)p.d(T)p.d(T)}$$$RNA1{StrandType:ss}|RNA2{StrandType:as}$”, for which the normalised inhibition (eCFP-eYFP dual reporter) was 101%.
The result for “RNA1{r(C)p.r(A)p.r(G)p.r(A)p.r(C)p.r(A)p.r(U)p.r(C)p.r(A)p.r(U)p.r(A)p.r(A)p.r(U)p.r(U)p.r(G)p.r(G)p.r(C)p.r(U)p.r(U)p.d(T)p.d(T)}|RNA2{r(A)p.r(A)p.r(G)p.r(C)p.r(C)p.r(A)p.r(A)p.r(U)p.r(U)p.r(A)p.r(U)p.r(G)p.r(A)p.r(U)p.r(G)p.r(U)p.r(C)p.r(U)p.r(G)p.d(C)p.d(A)}$$$RNA1{StrandType:ss}|RNA2{StrandType:as}$” reads 103%; that for “RNA1{r(C)p.r(A)p.r(G)p.r(U)p.r(G)p.r(C)p.r(A)p.r(G)p.r(U)p.r(G)p.r(G)p.r(A)p.r(C)p.r(A)p.r(A)p.r(A)p.r(C)p.r(U)p.r(G)p.d(T)p.d(T)}|RNA2{r(C)p.r(A)p.r(G)p.r(U)p.r(U)p.r(U)p.r(G)p.r(U)p.r(C)p.r(C)p.r(A)p.r(C)p.r(U)p.r(G)p.r(C)p.r(A)p.r(C)p.r(U)p.r(G)p.d(G)p.d(T)}$$$RNA1{StrandType:ss}|RNA2{StrandType:as}$”, 100%.
The result for “RNA1{r(C)p.r(A)p.r(U)p.r(A)p.r(A)p.r(U)p.r(U)p.r(G)p.r(G)p.r(C)p.r(U)p.r(U)p.r(C)p.r(G)p.r(C)p.r(A)p.r(A)p.r(G)p.r(G)p.d(T)p.d(T)}|RNA2{r(C)p.r(C)p.r(U)p.r(U)p.r(G)p.r(C)p.r(G)p.r(A)p.r(A)p.r(G)p.r(C)p.r(C)p.r(A)p.r(A)p.r(U)p.r(U)p.r(A)p.r(U)p.r(G)p.d(A)p.d(T)}$$$RNA1{StrandType:ss}|RNA2{StrandType:as}$” reads 63.1%; that for “RNA1{r(C)p.r(A)p.r(U)p.r(G)p.r(G)p.r(A)p.r(G)p.r(A)p.r(U)p.r(A)p.r(A)p.r(U)p.r(G)p.r(C)p.r(A)p.r(G)p.r(A)p.r(A)p.r(G)p.d(T)p.d(T)}|RNA2{r(C)p.r(U)p.r(U)p.r(C)p.r(U)p.r(G)p.r(C)p.r(A)p.r(U)p.r(U)p.r(A)p.r(U)p.r(C)p.r(U)p.r(C)p.r(C)p.r(A)p.r(U)p.r(G)p.d(A)p.d(C)}$$$RNA1{StrandType:ss}|RNA2{StrandType:as}$”, 97.5%.
In the case of “RNA1{r(C)p.r(C)p.r(A)p.r(G)p.r(G)p.r(A)p.r(A)p.r(A)p.r(C)p.r(A)p.r(C)p.r(U)p.r(C)p.r(U)p.r(A)p.r(G)p.r(G)p.r(C)p.r(C)p.d(T)p.d(T)}|RNA2{r(G)p.r(G)p.r(C)p.r(C)p.r(U)p.r(A)p.r(G)p.r(A)p.r(G)p.r(U)p.r(G)p.r(U)p.r(U)p.r(U)p.r(C)p.r(C)p.r(U)p.r(G)p.r(G)p.d(C)p.d(C)}$$$RNA1{StrandType:ss}|RNA2{StrandType:as}$”, the normalised inhibition (eCFP-eYFP dual reporter) was determined as 33.8%.
Turning to “RNA1{r(C)p.r(C)p.r(A)p.r(G)p.r(G)p.r(A)p.r(A)p.r(G)p.r(C)p.r(C)p.r(G)p.r(G)p.r(A)p.r(G)p.r(A)p.r(A)p.r(G)p.r(U)p.r(G)p.d(T)p.d(T)}|RNA2{r(C)p.r(A)p.r(C)p.r(U)p.r(U)p.r(C)p.r(U)p.r(C)p.r(C)p.r(G)p.r(G)p.r(C)p.r(U)p.r(U)p.r(C)p.r(C)p.r(U)p.r(G)p.r(G)p.d(G)p.d(A)}$$$RNA1{StrandType:ss}|RNA2{StrandType:as}$”, the normalised inhibition (eCFP-eYFP dual reporter) turned out to be 72.2%.
Take “RNA1{r(C)p.r(C)p.r(A)p.r(G)p.r(G)p.r(U)p.r(G)p.r(U)p.r(G)p.r(G)p.r(A)p.r(G)p.r(U)p.r(G)p.r(C)p.r(C)p.r(A)p.r(G)p.r(A)p.d(T)p.d(T)}|RNA2{r(U)p.r(C)p.r(U)p.r(G)p.r(G)p.r(C)p.r(A)p.r(C)p.r(U)p.r(C)p.r(C)p.r(A)p.r(C)p.r(A)p.r(C)p.r(C)p.r(U)p.r(G)p.r(G)p.d(G)p.d(C)}$$$RNA1{StrandType:ss}|RNA2{StrandType:as}$”: the normalised inhibition (eCFP-eYFP dual reporter) worked out at 85.6%.
